Experimental data published in US20130071931A1, “PROCESS FOR HEPATIC DIFFERENTIATION FROM INDUCED HEPATIC STEM CELLS, AND INDUCED HEPATIC PROGENITOR CELLS DIFFERENTIATED THEREBY” (NATIONAL CANCER CENTER, priority 2011, published 2013).
Counter-ions that a name gives are not always drawn.

How the values were obtained:
[1] = tested on: human induced hepatic stem cells AFB1-1; experiment: Quantitative RT-PCR, differentiation with TGF-β signaling inhibitors (Example 12); format: cell-based; conditions: cell samples Nos. 1545-1549: 0.5 μM inhibitor in ReproStem (bFGF-free), no feeder cells, Matrigel, 13 days after seeding; for KRT7 expression ratio: No. 1543 taken as 1; for GAPDH expression Ct value: housekeeping gene
Procedure: The resultant cell samples are respectively referred to as “Nos. 1545-1549”. No. 1544 was cultured in the absence of any inhibitor. Nos. 1545-1549 were cultured in the presence of the following inhibitors, respectively.
Thirteen days after the seeding, the cells were lysed in 1 mL/well of a QIAzol reagent to prepare the total RNA from the cell lysate using the miRNeasy Mini Kit (Qiagen). The total RNA was subjected to quantitative RT-PCR using the iScript Advanced cDNA synthesis kit, the SsoAdvanced SYBR Green Supremix ([…]), and the CFX96 Real-Time System C1000 Thermal Cycler, all manufactured by Bio-Rad. The quantified genes were ALB, AAT, TTR, AFP, cytokeratin 7 (KRT7), cytokeratin 19 (KRT19), and DLK1 (Delta-like 1 homolog).

[2] = tested on: human induced hepatic stem cells NGC1-1; experiment: Quantitative RT-PCR, differentiation with TGF-β signaling inhibitors (Example 11); format: cell-based; conditions: cell samples Nos. 1141-1145: 0.5 μM inhibitor in ReproStem + 10 ng/mL aFGF, no feeder cells, Matrigel, 7 days after seeding; No. 1133 taken as 1
Procedure: The resultant cell samples are respectively referred to as “Nos. 1141-1145”. No. 1140 was cultured in the absence of any inhibitor. Nos. 1141-1145 were cultured in the presence of the following inhibitors, respectively. No. 1141: […] Cat. No. 2939) No. 1142: […] MERCK Calbiochem; Cat. […] MERCK Calbiochem; Cat. […] Cayman; Cat. No. 13031) No. 1145: […] Cayman; Cat. No. 13341). […] Seven days after the seeding, the cells were lysed in 1 mL/well of a QIAzol reagent to prepare the total RNA from the cell lysate using the miRNeasy Mini Kit (Qiagen). The total RNA was subjected to quantitative RT-PCR using the iScript Advanced cDNA synthesis kit, the SsoAdvanced SYBR Green Supremix ([…]), and the CFX96 Real-Time System C1000 Thermal Cycler, all manufactured by Bio-Rad.

[3] = tested on: human induced hepatic stem cells AFB1-1; experiment: AFP in culture supernatant, hepatic differentiation on Matrigel (Examples 2-4); conditions: cell sample No. 391: aFGF 10 ng/mL/ReproStem (bFGF-free), no feeder cells, 13 days after seeding
[4] = tested on: human induced hepatic stem cells AFB1-1; experiment: Quantitative RT-PCR of marker genes, hepatic differentiation on Matrigel (Examples 2-4); format: cell-based; conditions: cell sample No. 391: aFGF 10 ng/mL/ReproStem (bFGF-free), no feeder cells, 13 days, No. 377 taken as 1

Molecule | AAT expression Ct value [1] | AFP expression Ct value [1] | ALB expression Ct value [1] | DLK1 expression Ct value [1] | KRT7 expression Ct value [1] | KRT19 expression Ct value [1] | TTR expression Ct value [1] | KRT7 expression ratio [1] | GAPDH expression Ct value [1] | AAT expression ratio [2] | AFP expression ratio [2] | ALB expression ratio [2] | TTR expression ratio [2] | further results
Fc1ccc(Cl)cc1-c1nc(Nc2ccncc2)c2nccnc2n1 [compound 616456] | 23.54 | 17.48 | 21.35 | 19.1 | 20.05 | 20.45 | 17.4 | 3186 | 13.72 |  |  |  |  | 
Cc1cccc(-c2[nH]c(C(C)(C)C)nc2-c2ccc3c(c2)OCO3)n1.Cl [SB-505124, 2-(5-benzo[1,3]dioxol-5-yl-2-tert-butyl-3H-imidazol-4-yl)-6-methylpyridine hydrochloride hydrate] | 23.56 | 18.61 | 23.2 | 18.77 | 19.8 | 20.33 | 17.24 | 2768 | 13.25 |  |  |  |  | 
c1ccc(-c2n[nH]cc2-c2ccnc3ccccc23)nc1 [LY-364947, 4-[3-(2-pyridinyl)-1H-pyrazol-4-yl]-quinoline] |  |  |  |  |  |  |  |  |  | 14.36 | 369.23 | 114.78 | 482.45 | 
NC(=O)c1ccc(-c2nc(-c3ccc4c(c3)OCO4)c(-c3ccccn3)[nH]2)cc1 [SB431542, 4-[4-(1,3-benzodioxol-5-yl)-5-pyridin-2-yl-1H-imidazol-2-yl]benzamide] |  |  |  |  |  |  |  |  |  | 12.15 | 394.40 | 94.46 | 614.17 | 
Cc1cccc(-c2n[nH]cc2-c2ccc3ncccc3n2)n1 [compound 616451, 3-(pyridin-2-yl)-4-(4-quinonyl)-1H-pyrazole] |  |  |  |  |  |  |  |  |  | 13.45 | 747.65 | 163.71 | 966.14 | 
Cc1cccc(-c2[nH]c(C(C)(C)C)nc2-c2ccc3nccnc3c2)n1 [compound 616459, 6-(2-tert-butyl-5-(6-methyl-pyridin-2-yl)-1H-imidazol-4-yl)-quinoxaline] | 23.54 | 19.25 | 24.67 | 18.66 | 19.89 | 20.36 | 17.24 | 4905 | 14.24 |  |  |  |  | 
Cc1cccc(-c2n[nH]cc2-c2ccc3ncccc3n2)n1 [compound 616452, 2-(3-(6-methylpyridin-2-yl)-1H-pyrazol-4-yl)-1,5-naphthyridine] |  |  |  |  |  |  |  |  |  | 22.18 | 720.03 | 296.67 | 1,262.14 | 
Cc1cccc(-c2nc(C(C)(C)C)[nH]c2-c2ccc3c(c2)OCO3)n1 [compound 616453, HCl] | 24.09 | 20.24 | 25.55 | 18.74 | 19.45 | 20.29 | 18.13 | 4761 | 13.76 |  |  |  |  | 
aFGF: aFGF, 10 ng/mL supplement of bFGF-free ReproStem medium (cell sample No. 391) |  |  |  |  |  |  |  |  |  |  |  |  |  | α-fetoprotein (AFP) in culture supernatant [3]: 3,300 ng/mL; AAT expression level [4]: 220; AFP expression level [4]: 3,420; ALB expression level [4]: 3,172; DLK1 expression level [4]: 786; TTR expression level [4]: 3,910
